Calls of active or inactive are those of the source.
How the values were obtained:
[1] = molecular target: Mu-type opioid receptor (Homo sapiens, UniProt P35372); experiment: SAR Analysis of Antagonists of the MOR Receptor using an Image-Based Assay - Set 3. [Related pubchem assays (depositor defined):AID1777, AID1785, AID1786, AID1966, AID2133, AID2136, AID2284, AID2285, AID2420]; assay type: functional
[2] = molecular target: Delta-type opioid receptor (Homo sapiens, UniProt P41143); experiment: SAR Analysis of Antagonists of the DOR Receptor using an Image-Based Assay - Set 3. [Related pubchem assays (depositor defined):AID1777, AID1785]; assay type: functional;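 further: U2OS cells expressing DOR1 and beta-arrestin GFP stimulated with 100 nM SNC80; imaging of GFP-tagged beta-arrestin moving into spots after receptor activation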
[3] = molecular target: T1, Kappa-type opioid receptor (Homo sapiens, UniProt P41145); experiment: SAR analysis of small molecule antagonists of the kappa opioid receptor via a luminescent beta-arrestin assay - Set 3. [Related pubchem assays (depositor defined):AID1777, AID1778, AID1785, AID1786, AID1966, AID2133, AID2136, AID2285, AID2495]; assay type: functional
[4] = molecular target: T1, Kappa-type opioid receptor; experiment: SAR analysis of Antagonists of the Kappa Opioid Receptor (KOR) using an Image-Based Assay - Set 3. [Related pubchem assays (depositor defined):AID1777, AID1785]; assay type: functional
[5] = molecular target: Bcl-2-related protein A1 (Mus musculus, UniProt Q07440); assay type: functional;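 further: confirmatory dose–response counterscreen on Bfl-1, used to check hits from a UBC13 polyubiquitin inhibitor campaign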
[6] = molecular target: T2, Ubiquitin-conjugating enzyme E2 N (Homo sapiens, UniProt P61088); assay type: functional
T2 sequence (P61088 whole entry): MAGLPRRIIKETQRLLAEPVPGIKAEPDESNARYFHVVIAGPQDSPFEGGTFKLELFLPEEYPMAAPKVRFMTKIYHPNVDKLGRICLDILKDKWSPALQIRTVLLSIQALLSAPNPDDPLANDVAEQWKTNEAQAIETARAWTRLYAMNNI

[7] = molecular target: T2, Ubiquitin-conjugating enzyme E2 N; assay type: functional; remark: listed apart in the source
[8] = molecular target: T3, Beta-galactosidase (Escherichia coli, UniProt Q8VNN2); experiment: Dose response counterscreen for EBI2 assay utilizing the enzyme, b-galactosidase.; assay type: functional
[9] = molecular target: G-protein coupled receptor 55 (Homo sapiens, UniProt Q9Y2T6); experiment: GPR55 antagonists blocking LPI-driven arrestin recruitment, primary screen, imaging, U2OS, beta-arrestin-GFP, LPI agonist (AID 2013); assay type: functional;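 further: antagonist potency measured as reduced agonist-driven arrestin aggregation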
[10] = molecular target: T4, Fatty acid synthase (Homo sapiens, UniProt P49327); experiment: FAS thioesterase domain inhibitors, dose response, biochemical, endpoint fluorescence intensity, uHTS hits (AID 624327); assay type: functional;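 further: fluorescence from hydrolysis of an O-methyl fluorescein acyl ester substrate by the enzyme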
[11] = molecular target: T4, Fatty acid synthase; experiment: FAS thioesterase domain inhibitors, dose response, biochemical, kinetic fluorescence intensity (AID 624326); assay type: functional;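 further: rate of fluorescence rise from hydrolysis of a fluorogenic O-methyl fluorescein ester substrate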
[12] = molecular target: T5, E3 ubiquitin-protein ligase XIAP (Homo sapiens, UniProt P98170); experiment: Counter Screen using XIAP-Bir3 for Chemical Antagonists of Bir1/2 domains of IAP-family anti-apoptotic proteins. [Related pubchem assays (depositor defined):AID1018, AID1449, AID1514, AID1638, AID1749, AID1750, AID488957, AID488963]
[13] = molecular target: T5, E3 ubiquitin-protein ligase XIAP; experiment: XIAP antagonists, biochemical, IAP family, fluorescence polarization (AID 1018); assay type: functional
[14] = molecular target: Hexokinase (Trypanosoma brucei, UniProt Q38C41); experiment: Confirmation assay for inhibitors of Trypanosoma brucei hexokinase 1-Analogue-first series. [Related pubchem assays (depositor defined):AID1430, AID1632, AID2516, AID2560, AID2579, AID2600, AID449725, AID492951]; assay type: functional
[15] = inhibitors of firefly luciferase expression or activity, dose response, H4 neuroglioma cells, luminescence (AID 1990); assay type: functional, cell-based
[16] = system: HEK293; experiment: NOD1 signaling inhibitors, primary screen, cell-based, luminescence, uHTS (AID 1578); assay type: functional; conditions: Homo sapiens
[17] = system: Streptococcus sp. 'group A'; experiment: growth inhibition of control SK(-) GAS strain, dose response, counter-screen for streptokinase expression inhibitor project, luminescence, kanamycin, BacTiterGlo, confirmation (AID 1900); assay type: functional, organism-based
[18] = system: HEK293; experiment: cells; assay type: functional, cell-based; conditions: Homo sapiens
[19] = A Cell Based Secondary Assay To Explore Cytotoxicity of Compounds that Sensitize Mycobacterium Tuberculosis to Beta-Lactam Antibiotics.; assay type: functional
[20] = Luminescence Cell-Based Dose Response HTS to Identify Inhibitors of 5'UTR Stem-Loop Driven Prion Protein mRNA Translation in H4 Neuroglioblastoma Cells. [Related pubchem assays: 1827 (Project Summary), 1813 (Primary HTS)]; assay type: functional
[21] = inhibitors of SNCA 5'UTR-driven reporter translation, confirmation, H4 neuroglioma cells, luminescence (AID 1988); assay type: functional, cell-based
[22] = system: HEK293; experiment: cells; assay type: functional, cell-based; conditions: Homo sapiens; remark: listed apart in the source
[23] = molecular target: Nucleotide-binding oligomerization domain-containing protein 2 (Homo sapiens, UniProt Q9HC29); experiment: NOD2 signaling inhibitors, cell-based, luminescence, uHTS, HEK293 (AID 1566); assay type: functional
[24] = system: HEK293; experiment: NOD2 signaling inhibitors in MDP-stimulated cells, cell-based, uHTS, luminescence (AID 2001); assay type: functional; conditions: Homo sapiens
[25] = system: HEK293; experiment: cells; assay type: functional, cell-based; conditions: Homo sapiens; remark: listed apart in the source
[26] = molecular target: T1, Kappa-type opioid receptor; assay type: functional
[27] = molecular target: T3, Beta-galactosidase; assay type: functional
[28] = molecular target: T1, Kappa-type opioid receptor; assay type: functional; remark: listed apart in the source
[29] = system: Streptococcus; experiment: Group A Streptococcus viability loss, dose response, counter-screen for streptokinase expression inhibitor project, luminescence, BacTiterGlo (AID 1915); assay type: functional, organism-based;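 further: potency for reduction of bacterial viability or growth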
[30] = molecular target: Nonstructural protein 1 (Influenza A virus, UniProt Q194T2); assay type: functional, Influenza A virus (A/California/07/2009(H1N1))
[31] = system: Vero; experiment: cells; assay type: functional, cell-based, Chlorocebus sabaeus; conditions: Chlorocebus sabaeus, Vero
[32] = system: INS1; experiment: beta cell apoptosis inhibitors, cytokine rescue, dose response, luminescence, retest (AID 449756); assay type: functional, cell-based; conditions: Rattus norvegicus;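 further: cell death triggered by IL-1 beta plus TNF-alpha plus IFN-gamma mixture; protective hits raise ATP signal compared with cytokine alone wells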
[33] = system: Vero; experiment: cells; assay type: functional, Chlorocebus sabaeus; conditions: Chlorocebus sabaeus, Vero

T1 sequence (P41145 whole entry): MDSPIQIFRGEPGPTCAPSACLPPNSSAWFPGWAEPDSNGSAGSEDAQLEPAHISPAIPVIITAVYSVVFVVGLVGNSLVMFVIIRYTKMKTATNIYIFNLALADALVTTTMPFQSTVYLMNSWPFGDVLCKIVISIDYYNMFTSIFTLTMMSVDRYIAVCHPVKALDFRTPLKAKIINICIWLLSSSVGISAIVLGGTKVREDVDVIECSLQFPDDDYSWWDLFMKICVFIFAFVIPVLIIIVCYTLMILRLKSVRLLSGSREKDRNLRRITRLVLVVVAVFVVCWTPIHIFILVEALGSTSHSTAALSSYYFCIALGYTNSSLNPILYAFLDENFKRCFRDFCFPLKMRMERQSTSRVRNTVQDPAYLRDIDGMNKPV
T5 sequence (P98170 whole entry): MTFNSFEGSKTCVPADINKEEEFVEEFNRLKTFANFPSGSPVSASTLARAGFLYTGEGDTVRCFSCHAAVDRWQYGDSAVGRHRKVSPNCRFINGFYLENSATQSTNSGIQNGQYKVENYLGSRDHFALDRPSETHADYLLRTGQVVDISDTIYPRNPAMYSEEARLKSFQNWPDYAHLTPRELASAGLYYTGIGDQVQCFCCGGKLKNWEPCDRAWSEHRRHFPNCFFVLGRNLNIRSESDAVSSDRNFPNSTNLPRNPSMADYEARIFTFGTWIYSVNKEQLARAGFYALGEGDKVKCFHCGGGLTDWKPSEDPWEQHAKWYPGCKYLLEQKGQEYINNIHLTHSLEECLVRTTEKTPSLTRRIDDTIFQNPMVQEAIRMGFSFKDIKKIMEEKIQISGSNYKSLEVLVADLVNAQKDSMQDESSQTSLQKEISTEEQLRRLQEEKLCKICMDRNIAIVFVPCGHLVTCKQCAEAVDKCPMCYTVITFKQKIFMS
Sequence of Hexokinase (Q38C41 whole entry): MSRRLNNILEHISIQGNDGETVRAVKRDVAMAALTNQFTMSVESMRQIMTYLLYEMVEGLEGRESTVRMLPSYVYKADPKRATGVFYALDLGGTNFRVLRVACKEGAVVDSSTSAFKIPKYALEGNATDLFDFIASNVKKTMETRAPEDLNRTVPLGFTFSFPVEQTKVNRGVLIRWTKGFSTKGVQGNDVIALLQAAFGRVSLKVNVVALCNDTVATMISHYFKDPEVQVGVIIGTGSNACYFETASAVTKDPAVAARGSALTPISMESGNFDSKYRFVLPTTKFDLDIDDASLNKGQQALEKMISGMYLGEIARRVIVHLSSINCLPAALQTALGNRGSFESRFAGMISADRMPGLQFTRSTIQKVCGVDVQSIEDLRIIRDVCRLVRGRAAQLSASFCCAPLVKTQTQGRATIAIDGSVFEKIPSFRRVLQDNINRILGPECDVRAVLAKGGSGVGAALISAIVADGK
Sequence of Delta-type opioid receptor (P41143 whole entry): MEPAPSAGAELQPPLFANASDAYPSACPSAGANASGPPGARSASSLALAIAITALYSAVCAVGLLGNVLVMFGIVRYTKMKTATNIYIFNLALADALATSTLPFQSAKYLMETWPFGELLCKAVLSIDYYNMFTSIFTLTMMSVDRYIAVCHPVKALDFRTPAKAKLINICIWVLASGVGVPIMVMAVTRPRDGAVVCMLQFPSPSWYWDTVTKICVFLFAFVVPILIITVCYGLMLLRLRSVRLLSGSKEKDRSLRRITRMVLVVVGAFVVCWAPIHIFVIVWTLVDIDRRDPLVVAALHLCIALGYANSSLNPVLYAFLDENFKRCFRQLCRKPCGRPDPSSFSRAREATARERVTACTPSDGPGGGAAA
T3 sequence (Q8VNN2 whole entry): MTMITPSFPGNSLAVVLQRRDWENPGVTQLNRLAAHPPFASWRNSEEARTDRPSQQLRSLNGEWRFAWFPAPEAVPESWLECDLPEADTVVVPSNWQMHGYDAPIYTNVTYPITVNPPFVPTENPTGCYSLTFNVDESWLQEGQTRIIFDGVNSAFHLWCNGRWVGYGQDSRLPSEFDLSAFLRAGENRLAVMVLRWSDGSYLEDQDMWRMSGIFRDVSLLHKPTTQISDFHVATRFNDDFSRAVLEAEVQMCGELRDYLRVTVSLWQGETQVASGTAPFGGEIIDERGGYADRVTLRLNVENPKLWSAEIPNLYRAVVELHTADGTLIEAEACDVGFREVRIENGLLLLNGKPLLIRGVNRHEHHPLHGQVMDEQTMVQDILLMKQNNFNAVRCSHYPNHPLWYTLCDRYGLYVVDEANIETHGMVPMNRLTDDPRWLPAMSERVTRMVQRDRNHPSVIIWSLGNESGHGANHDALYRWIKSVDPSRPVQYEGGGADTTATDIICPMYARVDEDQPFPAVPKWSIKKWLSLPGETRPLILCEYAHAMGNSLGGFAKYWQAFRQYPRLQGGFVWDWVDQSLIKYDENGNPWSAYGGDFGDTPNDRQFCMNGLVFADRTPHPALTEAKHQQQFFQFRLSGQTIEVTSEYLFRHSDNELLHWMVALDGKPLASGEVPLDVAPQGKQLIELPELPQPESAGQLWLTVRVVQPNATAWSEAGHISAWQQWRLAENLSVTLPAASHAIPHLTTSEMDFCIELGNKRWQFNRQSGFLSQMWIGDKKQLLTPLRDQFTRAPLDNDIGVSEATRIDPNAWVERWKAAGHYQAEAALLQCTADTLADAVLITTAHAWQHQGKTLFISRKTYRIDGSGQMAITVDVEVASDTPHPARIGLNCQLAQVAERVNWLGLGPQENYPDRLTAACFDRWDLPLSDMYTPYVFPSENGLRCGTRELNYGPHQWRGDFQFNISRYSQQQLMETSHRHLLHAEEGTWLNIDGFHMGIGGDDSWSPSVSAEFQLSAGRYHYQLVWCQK
Sequence of Mu-type opioid receptor (P35372 whole entry): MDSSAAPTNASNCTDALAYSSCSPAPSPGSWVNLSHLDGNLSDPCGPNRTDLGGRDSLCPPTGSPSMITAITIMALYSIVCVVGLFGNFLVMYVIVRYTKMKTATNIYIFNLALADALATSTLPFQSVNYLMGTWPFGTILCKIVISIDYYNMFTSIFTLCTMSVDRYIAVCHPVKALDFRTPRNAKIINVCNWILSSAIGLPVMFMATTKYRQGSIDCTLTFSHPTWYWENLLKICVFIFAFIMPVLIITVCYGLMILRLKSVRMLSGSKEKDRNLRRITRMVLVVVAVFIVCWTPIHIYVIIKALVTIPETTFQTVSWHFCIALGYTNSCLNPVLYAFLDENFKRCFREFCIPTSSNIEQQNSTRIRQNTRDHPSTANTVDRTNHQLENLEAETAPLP
Sequence of Nonstructural protein 1 (Q194T2 whole entry): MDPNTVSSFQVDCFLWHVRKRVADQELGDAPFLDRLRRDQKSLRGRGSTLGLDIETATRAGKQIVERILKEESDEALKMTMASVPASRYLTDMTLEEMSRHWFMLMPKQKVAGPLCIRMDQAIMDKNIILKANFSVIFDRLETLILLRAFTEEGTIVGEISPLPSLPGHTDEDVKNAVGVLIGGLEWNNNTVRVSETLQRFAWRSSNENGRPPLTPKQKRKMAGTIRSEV
Sequence of G-protein coupled receptor 55 (Q9Y2T6 whole entry, the tested form may be a part): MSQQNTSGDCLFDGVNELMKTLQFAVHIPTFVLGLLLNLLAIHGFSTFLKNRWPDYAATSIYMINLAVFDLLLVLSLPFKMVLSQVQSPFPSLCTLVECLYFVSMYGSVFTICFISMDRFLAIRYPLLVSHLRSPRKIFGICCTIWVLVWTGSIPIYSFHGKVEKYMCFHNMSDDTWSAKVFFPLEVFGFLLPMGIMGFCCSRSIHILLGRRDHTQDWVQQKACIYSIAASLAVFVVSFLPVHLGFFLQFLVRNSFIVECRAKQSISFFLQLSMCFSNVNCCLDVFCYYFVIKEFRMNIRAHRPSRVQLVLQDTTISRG
Sequence of Bcl-2-related protein A1 (Q07440 whole entry): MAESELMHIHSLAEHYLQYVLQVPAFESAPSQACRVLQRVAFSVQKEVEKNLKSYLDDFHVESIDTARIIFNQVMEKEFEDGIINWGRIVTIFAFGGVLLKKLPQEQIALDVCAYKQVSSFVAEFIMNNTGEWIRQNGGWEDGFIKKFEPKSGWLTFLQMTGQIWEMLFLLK
Sequence of Nucleotide-binding oligomerization domain-containing protein 2 (Q9HC29 whole entry, the tested form may be a part): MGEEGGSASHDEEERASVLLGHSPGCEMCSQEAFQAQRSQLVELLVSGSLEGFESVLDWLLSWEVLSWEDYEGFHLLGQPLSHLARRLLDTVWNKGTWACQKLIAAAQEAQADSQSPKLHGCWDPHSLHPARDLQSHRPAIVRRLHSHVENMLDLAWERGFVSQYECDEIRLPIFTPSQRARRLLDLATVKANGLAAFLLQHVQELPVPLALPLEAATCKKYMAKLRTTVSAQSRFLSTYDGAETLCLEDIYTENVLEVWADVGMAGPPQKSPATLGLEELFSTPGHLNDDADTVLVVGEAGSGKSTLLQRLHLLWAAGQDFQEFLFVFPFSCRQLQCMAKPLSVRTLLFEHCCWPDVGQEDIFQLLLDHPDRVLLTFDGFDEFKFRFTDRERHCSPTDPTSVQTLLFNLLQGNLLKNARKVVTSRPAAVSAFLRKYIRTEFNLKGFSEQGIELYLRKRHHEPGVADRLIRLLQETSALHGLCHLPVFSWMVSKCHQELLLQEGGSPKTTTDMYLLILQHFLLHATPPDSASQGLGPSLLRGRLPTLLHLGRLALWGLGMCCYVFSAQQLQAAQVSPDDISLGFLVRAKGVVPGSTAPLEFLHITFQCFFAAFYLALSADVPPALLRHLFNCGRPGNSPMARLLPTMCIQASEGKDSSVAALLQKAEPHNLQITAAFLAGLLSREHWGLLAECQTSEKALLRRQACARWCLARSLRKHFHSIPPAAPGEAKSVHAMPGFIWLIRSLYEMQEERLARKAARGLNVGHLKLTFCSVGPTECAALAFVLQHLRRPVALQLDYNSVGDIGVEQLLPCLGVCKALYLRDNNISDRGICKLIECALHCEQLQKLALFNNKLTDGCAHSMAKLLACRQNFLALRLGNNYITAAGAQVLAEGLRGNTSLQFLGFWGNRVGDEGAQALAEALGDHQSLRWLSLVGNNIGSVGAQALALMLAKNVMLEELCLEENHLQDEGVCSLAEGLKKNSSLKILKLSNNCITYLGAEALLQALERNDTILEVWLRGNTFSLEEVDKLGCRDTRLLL

Question: What does the source list for COc1ccc(S(=O)(=O)NCc2ccc(C(=O)NCCN3Cc4ccccc4C3)cc2)cc1?
Answer: IC50 [1]: > 32 µM (inactive); IC50 [2]: > 32 µM (inactive); IC50 [3]: > 20 µM (inactive); IC50 [4]: > 32 µM (inactive)

Question: Which results are given for Cc1ccc(N(C(=O)c2snc(C(N)=O)c2N)C(C(=O)NC2CCCC2)c2ccc(C)o2)cc1 (stereo not given)?
Answer: IC50 [5]: > 20 µM (inactive); IC50 [6]: 19.9 µM (active); IC50 [7]: 10.4 µM (active); IC50 [8]: > 80 µM (inactive)

Question: What does the source list for CCS(=O)(=O)c1ccc(-c2csc(-c3ccc(Cl)cc3)n2)c(Cl)c1Cl?
Answer: IC50 [9]: 5.51 µM (active); IC50 [10]: 2.71 µM (active); IC50 [11]: 1.86 µM (active)

Question: With COc1ccc(CCC(=O)OCC(=O)Nc2ccc(C)c(S(=O)(=O)N(C)C)c2)cc1 as the molecule, how does the IC50 [12] read?
Answer: Its IC50 is > 100 µM (inactive).

Question: What about the IC50 [13] of the same molecule?
Answer: Its IC50 is > 100 µM (not active).

Question: Which IC50 [1] does the source give for Cc1ccc(CN(CCNC(=O)c2ccc(CNS(=O)(=O)c3cccc(C)c3)cc2)C(C)C)cc1 here?
Answer: The IC50 was > 32 µM (inactive).

Question: What about the IC50 [2] of the same molecule?
Answer: The IC50 was > 32 µM (inactive).

Question: What about the IC50 [3] of the same molecule?
Answer: Its IC50 is 1.83 µM (active).

Question: What about the IC50 [4] of the same molecule?
Answer: Its IC50 is 0.675 µM (active).

Question: For CN(C)c1ccc(C(=O)Nc2cc(Cl)ccc2C(=O)O)cc1, which IC50 [14] is on record?
Answer: The IC50 was > 25 µM (inactive).

Question: With O=C(Cn1sc2ccccc2c1=O)NC1CCCCC1 as the molecule, how does the IC50 [14] read?
Answer: Its IC50 is 9.35 µM (active).

Question: With O=C(O)C1C2C=CC(C2)C1C(=O)Nc1ccc(C(=O)N2CCCCC2)cc1 (stereo not given) as the molecule, how does the IC50 [12] read?
Answer: The IC50 was > 100 µM (inactive).

Question: What about the IC50 [13] of the same molecule?
Answer: Its IC50 is > 100 µM (not active).

Question: What does the source list for C/C(=N\NC(=O)c1cc(Br)ccc1O)c1ccccn1?
Answer: EC50 [15]: 10.2 µM (inconclusive); EC50 [16]: > 20 µM (inactive); EC50 [17]: 0.43 µM (active); IC50 [18]: 17.6 µM (active); CC50 [19]: 3.47 µM (active); EC50 [20]: 10.3 µM (active); EC50 [21]: 5.29 µM (active); IC50 [22]: > 20 µM (inactive); EC50 [23]: > 20 µM (inactive); IC50 [24]: 6.47 µM (inactive); IC50 [25]: > 20 µM (inactive); IC50 [26]: 3.54 µM (active); EC50 [27]: > 31.5 µM (inactive); IC50 [28]: > 32 µM; EC50 [29]: 3.7 µM (active); IC50 [30]: 30.4 µM (active); IC50 [31]: > 25 µM (active); AC50 [32]: 1.74 µM (active); CC50 [33]: 3.81 µM (active)
